Assays:
Assay type in all cases: in vivo
[1] = system: Echinochloa crus-galli; assay: Test Example 11: herbicidal effect test by soil treatment in paddy field; settings: 120 g/10a active ingredient, 14 days after treatment
Outline: (§1)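 Seeds were sown 0-1 cm deep in puddled, fertilised paddy soil in Wagner pots and kept under about 3 cm of flooding in a greenhouse. Diluted emulsifiable concentrate was added dropwise right after sowing at 120 g a.i. per 10 are. Suppression (%) came from dry weight versus untreated pots after 14 days, two replicates.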

[2] = system: Lindernia pyxidaria; assay: as above; settings: 120 g/10a active ingredient, 14 days after treatment
Outline: as §1

[3] = system: Monochoria vaginalis; assay: as above; settings: 120 g/10a active ingredient, 14 days after treatment
Outline: as §1

[4] = system: Scirpus juncoides; assay: as above; settings: 120 g/10a active ingredient, 14 days after treatment
Outline: as §1

[5] = system: Echinochloa crus-galli; assay: Test Example 12: herbicidal effect test by treatment during growing period in paddy field; settings: 120 g/10a; treatment seven days after sowing in flooded paddy pot; assessed 14 days after treatment
Outline: (§2)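 Puddled, fertilized paddy soil in Wagner pots, sown with 30 seeds per species at 0–1 cm and flooded to ~3 cm in a glass greenhouse. Emulsifiable concentrate dripped into water 7 days after sowing at 120 g a.i. per 10 are. Suppression % from dry weight vs untreated, 14 days post-treatment, two replicates.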

[6] = system: Lindernia pyxidaria; assay: as above; settings: 120 g/10a; treatment seven days after sowing in flooded paddy pot; assessed 14 days after treatment
Outline: as §2

[7] = system: Monochoria vaginalis; assay: as above; settings: 120 g/10a; treatment seven days after sowing in flooded paddy pot; assessed 14 days after treatment
Outline: as §2

[8] = system: Scirpus juncoides; assay: as above; settings: 120 g/10a; treatment seven days after sowing in flooded paddy pot; assessed 14 days after treatment
Outline: as §2

[9] = system: Amaranthus viridis; assay: Test Example 13: herbicidal effect test by soil treatment in upland field; settings: 120 g/10a, 14 days after treatment
Description: (§3) A pot having a size of 36 cm^2 was filled with field soil (alluvial soil) and after mixing the soil of the surface layer of 1 cm with 20 grains of each weed seed of crabgrass, Echinochloa crus-galli, Chenopodium album and Amaranthus viridis, the surface layer was pressed lightly. One day after the sowing, an emulsifiable concentrate prepared according to Formulation Example 15 by using the compound shown in Table 11 below was diluted with water, and the water-diluted formulation was sprayed on the soil surface at a ratio of 100 liter per 10 are. The application rate of the active ingredient, by conversion, corresponded to 120 g per 10 are. Fourteen Days after the formulation treatment, the herbicidal effect was evaluated by the same criteria as in Test Example 11.

[10] = system: Chenopodium album; assay: as above; settings: 120 g/10a, 14 days after treatment
Description: as §3

[11] = system: Echinochloa crus-galli; assay: as above; settings: 120 g/10a, 14 days after treatment
Description: as §3

[12] = system: crabgrass; assay: as above; settings: 120 g/10a, 14 days after treatment
Description: as §3

SMILES	Weed suppression rate (%) Echinochloa crus-galli [1]	Weed suppression rate (%) Lindemia pyxidaria [2]	Weed suppression rate (%) Monochoria vaginalis [3]	Weed suppression rate (%) Scirpus juncoides [4]	Weed suppression rate (%) Echinochloa crus-galli [5]	Weed suppression rate (%) Lindemia pyxidaria [6]	Weed suppression rate (%) Monochoria vaginalis [7]	Weed suppression rate (%) Scirpus juncoides [8]	herbicidal effect, Amaranthus viridis [9]	herbicidal effect, Chenopodium album [10]	herbicidal effect, Echinochloa crus-galli [11]	herbicidal effect, Crabgrass [12]
CC(C)N(C(=O)n1cnn(S(=O)(=O)C2CCCCC2)c1=O)c1ccccc1F [Compound 11-284]	100%	100%	100%	100%	100%	100%	100%	90%	90%	80%	80%	90%
CC(C)N(C(=O)n1cnn(S(=O)(=O)c2ccccc2C(F)(F)F)c1=O)c1ccc(F)cc1F [Compound 11-711]	90%	90%	90%	90%	60%	70%	70%	60%	50%	50%	100%	90%
CCN(CC)C(=O)n1cnn(S(=O)(=O)c2ccccc2C(F)(F)F)c1=O [Compound 11-710]	70%	40%	40%	40%	80%	40%	40%	40%	40%	60%	100%	80%
CC(C)N(C(=O)n1cnn(S(=O)(=O)c2cccs2)c1=O)c1c(F)cccc1F [Compound 11-1024]	100%	80%	70%	80%	100%	80%	90%	90%	60%	60%	70%	100%
CC(C)N(C(=O)n1cnn(S(=O)(=O)c2ccccc2)c1=O)c1ccc(F)cc1 [Compound 11-358]	90%	80%	80%	90%	90%	80%	80%	90%	90%	80%	80%	90%
CC(C)N(C(=O)n1cnn(S(=O)(=O)C2CC2)c1=O)c1ccc(C#N)cc1Cl [Compound 11-222]	90%	80%	80%	90%	90%	80%	80%	90%	90%	80%	80%	90%
CC(C)N(C(=O)n1cnn(S(=O)(=O)C(F)(F)F)c1=O)c1ccc(F)cc1F [Compound 11-95]	100%	100%	50%	100%	90%	60%	90%	70%	0%	0%	70%	70%
Cc1cc(Cl)ccc1N(C(=O)n1cnn(S(=O)(=O)C2CCCCC2)c1=O)C(C)C [Compound 11-309]	90%	80%	80%	90%	90%	80%	80%	90%	90%	80%	80%	90%
CC(C)N(C(=O)n1cnn(S(=O)(=O)c2ccccc2F)c1=O)c1c(F)cc(F)cc1F [Compound 11-406]	100%	100%	80%	80%	100%	70%	80%	80%	30%	30%	100%	90%
Cc1cc(F)ccc1N(C(=O)n1cnn(S(=O)(=O)c2ccc(F)cc2)c1=O)C(C)C [Compound 11-488]	100%	100%	80%	100%	100%	100%	100%	80%	60%	60%	60%	70%
CC(C)N(C(=O)n1cnn(S(=O)(=O)c2ccc(F)cc2)c1=O)c1c(F)cccc1F [Compound 11-477]	100%	90%	70%	100%	100%	60%	70%	70%	70%	70%	100%	100%
CC(C)N(C(=O)n1cnn(S(=O)(=O)c2cccc(Cl)c2)c1=O)c1ccc(F)cc1F [Compound 11-550]	90%	90%	80%	80%	70%	90%	90%	80%	0%	0%	90%	90%
Cc1cc(F)ccc1N(C(=O)n1cnn(S(=O)(=O)C2CC2)c1=O)C(C)C [Compound 11-211]	100%	100%	80%	90%	100%	80%	80%	100%	70%	70%	100%	100%
